From patent publication US6489292B1, “Stable aqueous insulin preparations without phenol and cresol” (Novo Nordisk A/S, priority 1998, dated 2002)

Experiments:
human insulin [1] = target: T1, human insulin (Homo sapiens, UniProt P01308); test: Physical stability of insulin solution at 5° C. by visual inspection for precipitation; assay type: physicochemical; details: 0.5 Zn2+/insulin, NaCl 15 mM, glycylglycine 7 mM, tween 20 0.01%, pH 7.5
T1 construct: Insulin derivatives having truncations in the C-terminal of the B-chain; deamidations at A18, A21 and B3
T1 sequence (P01308 25-54 limits assumed): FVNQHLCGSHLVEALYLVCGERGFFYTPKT
T1 sequence (P01308 90-110 limits assumed): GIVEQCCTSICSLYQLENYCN
Experimental: (§1) 27.5 ml of a 21 mM insulin stock solution was made by dissolving 3.707 g zinc free human insulin in 14 ml water and adding 2888 μl of 0.1 M ZnCl2 and 7 ml water before adjusting pH to 7.5 by 0.2 M NaOH and finally adding water to 27.5 ml, calculating the specific volume of insulin as 0.7 μl/mg. The stock solution was filtrated. A preparation of 3.5 ml 15 mM insulin was then made by adding 23 μl 2.3 M stabiliser in ethanol, 49 μl 0.5 M glycylglycine and 35 μl 1% Tween 20 and water to 3.5 ml. The solution was thereafter diluted with medium containing sodium chloride 15 mM, glycylglycine 7 mM, Tween 20 0.01%, pH 7.5 to 12, 9, 6, 3 and 0.6 mM insulin and stored at 5° C. for visual inspection. The reference solution was made by the same way but without adding a stabiliser. The chemical stability of the insulin solutions were followed at 37° C. for two concentrations, 3 and 15 mM, by determination of covalent insulin polymer by size exclusion chromatography. […] Detection was performed with a tunable absorbance detector (Waters 486) at 276 nm. Injection volume were […] for 3 and 15 mM insulin solutions, respectively.
(§2) 3.26 g human insulin (0.4 equivalent Zn^2+ per insulin) was dispersed in water in 18 ml water on icebath and added 490 μl 0.5 M glycylglycine and 1628 μl sodium hydroxide (3.1 equivalent) and stirred slowly overnight at 5° C. 613 μl 0.1 M zinc chloride (0.1 equivalent of zinc) was then added the solution, pH adjusted to 7.5 by 410 μl 1 M hydrochloric acid (0.8 equivalent of chloride) and the volume adjusted to 25 ml by water. Finally the stock solution of 21 mM insulin was filtrated. 3.57 ml of the stock solution was added 50 μl 1% tween 20, 750 μl 0.1 M stabiliser and 630 μl water to obtain 5 ml 15 mM insulin formulation. Finally the preparation was diluted with medium containing sodium chloride, glycylglycine and detergent to obtain 12, 9, 6, and 3 mM of human insulin and stored at 5° C. for visual inspection. The chemical stability of 3 and 15 mM insulin solutions were followed at 37° C. by determination of covalent insulin polymer by size exclusion chromatography.

human insulin [2] = target: T1, human insulin; test: Chemical stability at 37° C.: covalent insulin polymer by size exclusion chromatography; assay type: physicochemical; details: stabiliser equimolar to insulin, 0.5 Zn2+/insulin, NaCl 15 mM, glycylglycine 7 mM, tween 20 0.01%, pH 7.5
Experimental: as §1, §2

[3] = example 1, stabiliser equimolar to insulin
[4] = example 2, stabiliser equimolar to insulin

SMILES	Physical stability of solution at 4 weeks and 5° C.: maximal insulin concentration at which the solution was without precipitation up to 15 mM (3, 6, 9, 12, 15 mM) (human insulin [1]; [3]) [mM]	Chemical stability at 37° C. (% polymer/week), insulin solution of 3 mM (human insulin [2]; example 2, 3 mM insulin) [% polymer/week]	Chemical stability at 37° C. (% polymer/week), insulin solution of 15 mM (human insulin [2]; example 2, 15 mM insulin) [% polymer/week]	Physical stability of solution at 4 weeks and 5° C.: maximal insulin concentration at which the solution was without precipitation up to 15 mM (3, 6, 9, 12, 15 mM) (human insulin [1]; [4]) [mM]	Chemical stability at 37° C. (% polymer/week), insulin solution of 3 mM (human insulin [2]; example 1, 3 mM insulin) [% polymer/week]	Chemical stability at 37° C. (% polymer/week), insulin solution of 15 mM (human insulin [2]; example 1, 15 mM insulin) [% polymer/week]
CC1(C)C2CCC1(C)C(O)C2 (single isomer, unassigned; (+)) [(+)-borneol]	9				0.47	0.61
CC1C(O)CC2CC1C2(C)C (single isomer, unassigned; (-)) [(−)-isopinocampheol]	15					
CC1(C)[C@H]2CC[C@](C)(C2)[C@H]1O [(+)-fenchol]	15				0.50	0.97
Oc1ccccc1 [phenol]	15	0.32	0.29	15	0.37	0.39

Continued, in another order:

Physical stability of solution at 4 weeks and 5° C.: maximal insulin concentration at which the solution was without precipitation up to 15 mM (3, 6, 9, 12, 15 mM) (human insulin [1]; [3]) [mM]	Chemical stability at 37° C. (% polymer/week), insulin solution of 3 mM (human insulin [2]; example 2, 3 mM insulin) [% polymer/week]	Chemical stability at 37° C. (% polymer/week), insulin solution of 15 mM (human insulin [2]; example 2, 15 mM insulin) [% polymer/week]	Physical stability of solution at 4 weeks and 5° C.: maximal insulin concentration at which the solution was without precipitation up to 15 mM (3, 6, 9, 12, 15 mM) (human insulin [1]; [4]) [mM]	SMILES	Chemical stability at 37° C. (% polymer/week), insulin solution of 3 mM (human insulin [2]; example 1, 3 mM insulin) [% polymer/week]	Chemical stability at 37° C. (% polymer/week), insulin solution of 15 mM (human insulin [2]; example 1, 15 mM insulin) [% polymer/week]
15				CC1(C)[C@H]2CC[C@H](CO)[C@@H]1C2 (relative stereo) [(−)-trans-myrtanol]		
9				CC1(C)C2CCC1(C)C(O)C2 (single isomer, unassigned; (-)) [(−)-borneol]	0.43	0.47
12				C[C@@H]1[C@@H](O)C[C@H]2C[C@@H]1C2(C)C [(+)-isopinocampheol]		
	0.59	0.77	9	Nc1ncnc2nc[nH]c12 [adenine]		
	0.58	0.71	15	c1ncc2[nH]cnc2n1 [purine]		
